In patent US11059815B2, “Synthesis of small molecule histone deacetylase 6 degraders, compounds formed thereby, and pharmaceutical compositions containing them” (Wisconsin Alumni Research Foundation, priority 2018, dated 2021):

Target: T1, HDAC6 (Homo sapiens, UniProt Q9UBN7)
T1 construct: endogenous in cells; host or cells: MM1S (ATCC CRL-2974)
T1 sequence (Q9UBN7 1-1215): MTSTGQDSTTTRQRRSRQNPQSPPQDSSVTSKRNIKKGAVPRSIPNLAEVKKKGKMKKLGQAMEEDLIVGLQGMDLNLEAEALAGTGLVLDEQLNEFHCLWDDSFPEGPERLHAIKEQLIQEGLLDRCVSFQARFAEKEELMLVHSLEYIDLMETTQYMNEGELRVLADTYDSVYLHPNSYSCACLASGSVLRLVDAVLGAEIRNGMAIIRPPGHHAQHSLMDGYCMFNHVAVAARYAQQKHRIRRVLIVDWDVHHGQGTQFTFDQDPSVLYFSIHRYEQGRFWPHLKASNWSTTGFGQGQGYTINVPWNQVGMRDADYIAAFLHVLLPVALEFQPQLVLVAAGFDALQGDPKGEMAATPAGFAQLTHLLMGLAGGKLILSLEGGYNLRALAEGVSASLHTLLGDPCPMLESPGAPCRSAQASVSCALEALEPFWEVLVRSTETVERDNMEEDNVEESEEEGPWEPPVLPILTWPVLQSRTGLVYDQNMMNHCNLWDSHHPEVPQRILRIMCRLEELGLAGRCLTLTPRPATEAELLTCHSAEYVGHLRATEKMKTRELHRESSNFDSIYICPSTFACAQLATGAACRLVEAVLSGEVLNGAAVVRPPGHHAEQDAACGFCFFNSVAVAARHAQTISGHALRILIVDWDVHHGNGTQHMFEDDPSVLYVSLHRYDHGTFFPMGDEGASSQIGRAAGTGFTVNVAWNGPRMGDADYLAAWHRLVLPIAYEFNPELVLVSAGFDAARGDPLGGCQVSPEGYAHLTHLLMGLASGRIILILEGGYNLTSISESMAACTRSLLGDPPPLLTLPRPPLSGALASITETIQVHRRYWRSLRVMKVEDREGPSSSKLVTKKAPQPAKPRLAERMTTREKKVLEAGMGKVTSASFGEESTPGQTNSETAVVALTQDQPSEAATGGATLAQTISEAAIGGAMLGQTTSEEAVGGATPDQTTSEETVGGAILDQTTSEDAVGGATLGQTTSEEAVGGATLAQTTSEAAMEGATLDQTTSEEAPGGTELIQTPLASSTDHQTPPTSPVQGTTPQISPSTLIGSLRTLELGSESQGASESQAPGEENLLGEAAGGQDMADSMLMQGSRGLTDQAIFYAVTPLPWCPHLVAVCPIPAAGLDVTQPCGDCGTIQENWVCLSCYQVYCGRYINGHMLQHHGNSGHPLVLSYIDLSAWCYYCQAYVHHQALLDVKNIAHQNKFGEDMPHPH
Assay: In-cell ELISA of HDAC6 protein level in MM1S cells
Assay type: cell-based
Conditions: 6 h; for DC50 / Dmax: 0.1 nM to 1 μM, nonlinear fit, ± SD; for Dmax / inhibition at 0.01 µM / inhibition at 0.1 µM: MM1.S; for Dmax: read-out: Dmax (Vehicle %); for inhibition at 0.01 µM: n=3, read-out: Degradation (%) 10 nM; for inhibition at 0.1 µM: n=3, read-out: Degradation (%) 100 nM
Procedure: FIG. 9 is a histogram depicting the results of screening of compounds for HDAC6 degradation activity by in-cell ELISA. MM1S cells were treated with compounds at 100 nM (blue bars) or 10 nM (red bars) for 6 h. Data was normalized to vehicle (DMSO)-treated group and the bar graph represents as mean of relative HDAC6 protein level (n=3) with ±SD as error bar. Statistical significance was analyzed by one-way ANOVA. Not significant (ns) P>0.05, *P≤0.05, **P≤0.01, ***P≤0.001, ****P≤0.0001.
FIG. 11 is a graph depicting dose response of selected degrader candidates. MM1S cells were treated for 6 h and analyzed by in-cell ELISA. Data was normalized to vehicle (DMSO)-treated group and dot plot represented as mean relative expression (n=3) with ±SD as error bar. Nonlinear fitting of inhibitor concentration vs. response (three parameters) was generated by GraphPad Prism with R2 from 0.97 to 0.99.
FIG. 15 is a histogram depicting relative HDAC6 expression as a function of linker length for compounds 3a through 3k as described in the Examples section, Part 2. Human MM1S cells were treated with 100 nM degraders for 6 hours and analyzed by in-cell ELISA assay.
FIG. 17 is a dose-response curve for degraders 3j (n=1), 3k (n=12) and 2, at concentrations from 1 nM to 300 nM for 4 h in MM1S. See the Examples, Part 2.
To screen the new series of degraders, an in-cell ELISA assay was developed and validated. The compounds were treated at 100 nM and 10 nM in MM1S cells for 6 h. Resulting cells were then fixed and analyzed by in-cell ELISA. […] Degraders including 1 at 100 nM degraded 73.5% to 85.0% of HDAC6 with minor difference. At 10 nM concentration of compounds, obvious structure-activity-relationship (SAR) was observed. […] For example, 12d, 12h, 12i, 12o and 12p all achieved about 70% degradation. Among the C4-linked series, 12d with medium length linker (5+1) achieved most degradation in sub-series 12a-e (m=1). […] Among C5-linked series, the potency of sub-series 12l-p (m=1) increased with the linker length. […] It appeared that both the distance and linking positions contributed to the degradation efficiency. The rigid triazole ring in the middle of the linker likely modulated the plasticity of degrader-bridged ternary complex.
The amount of cellular HDAC6 was measured in response to concentrations of compounds from 0.1 nM to 1 μM. […] The new degraders had single-digit nanomolar DC50, which was about 3 to 5 fold of improvement from 9.12 nM of degrader 1. […] As discussed above, most PROTACs were designed to avoid degrading other proteins except the targeted POIs. However, in these studies, it was hypothesized that HDAC6 degraders with IKZF degradation will have enhanced anti-proliferation effect MM1S cells.
MM1S cells were harvested and plated with 5×10^5 cells in 100 μL media per well 96-wells plate. After overnight seeding, 25 μL media containing 5× dosing concentration of the compounds or vehicle was added to each well. After 6-hour treatment at 37° C. in a humidified 5% CO2 atmosphere, cells were fixed by adding 125 μL 8% formaldehyde in TBS buffer (137 mM NaCl, 25 mM Tris, 2.7 mM potassium chloride, pH 7.6) and incubated at room temperature (RT) for 15 minutes. Removal of fixing solution was followed by once rinse and twice washes with TBS-T washing buffer (137 mM NaCl, 20 mM Tris, 0.1% Tween, pH 7.6). Cells were then permeabilized by adding 100 μL 0.1% Triton-X in TBS and incubated at RT for 15 minutes. Removal of permeabilizing solution was followed by once rinse and once wash with TBS-T. Cellular endogenous peroxidases were quenched by adding 100 μL 1% H2O2 in TBS and incubation at RT for 20 minutes. Removal of quenching solution was followed by once rinse and once wash with TBS-T. Non-specific binding sites were blocked by adding […] 5% BSA in TBS-T (with 0.02% NaN3) and incubation at 4° C. overnight. […]

[1] = 10 nM, 100% minus mean (± SD) relative HDAC6 expression
[2] = 100 nM, 100% minus mean (± SD) relative HDAC6 expression

Row | Structure (SMILES) | DC50 [nM] | Degradation (%) 10 nM (10 nM, 100% minus mean (± SD) relative HDAC6 expression, n=3) [%] | Dmax [%] | inhibition at 0.01 µM [1] [%] | inhibition at 0.1 µM [2] [%] | effect on expression of HDAC6 compared with vehicle (10 nM) | effect on expression of HDAC6 compared with vehicle (100 nM)
1 | O=C(CCCCCCC(=O)N/N=C/c1ccc(OCCOCCOCCn2cc(CNc3cccc4c3C(=O)N(C3CCC(=O)NC3=O)C4=O)nn2)cc1)NO (stereo not drawn) [Compound 1] | 9.12 | 47.9 ± 0.9 | 84.1 ± 2.41 | 47.9 | 73.5 ± 0.3 | – | –
2 | CCCCN(Cc1ccc(C(=O)NO)cc1)C(=O)Nc1ccccc1 [Next-A, 4-[[butyl[(phenylamino)carbonyl]amino]methyl]-N-hydroxy-benzamide, reference compound] | – | – | – | – | – | didn't affect | very minimal effects
3 | Nc1cccc2c1C(=O)N(C1CCC(=O)NC1=O)C2=O (stereo not drawn) [Pomalidomide, reference compound] | – | – | – | – | – | didn't affect | very minimal effects

Further lines, results first:

Row | DC50 [nM] | Degradation (%) 10 nM (10 nM, 100% minus mean (± SD) relative HDAC6 expression, n=3) [%] | Dmax [%] | inhibition at 0.01 µM [1] [%] | inhibition at 0.1 µM [2] [%] | effect on expression of HDAC6 compared with vehicle (10 nM) | effect on expression of HDAC6 compared with vehicle (100 nM) | Structure (SMILES)
4 | – | – | – | 60.3 ± 1.3 | 81.2 ± 0.6 | – | – | CCCCN(Cc1ccc(C(=O)NO)cc1)C(=O)Nc1ccc(OCCCn2cc(CNc3ccc4c(c3)C(=O)N(C3CCC(=O)NC3=O)C4=O)nn2)cc1 (stereo not drawn) [Compound 12m, 4-((1-butyl-3-(4-(3-(4-(((2-(2,6-dioxopiperidin-3-yl)-1,3-dioxoisoindolin-5-yl)amino)methyl)-1H-1,2,3-triazol-1-yl)propoxy)phenyl)ureido)methyl)-N-hydroxybenzamide]
5 | 1.64 | – | 86.3 ± 1.7 | ~70 | 82.7 ± 1.7 | – | – | CCCCN(Cc1ccc(C(=O)NO)cc1)C(=O)Nc1ccc(OCCCCCn2cc(CNc3cccc4c3C(=O)N(C3CCC(=O)NC3=O)C4=O)nn2)cc1 (stereo not drawn) [Compound 12d, 4-((1-butyl-3-(4-((5-(4-(((2-(2,6-dioxopiperidin-3-yl)-1,3-dioxoisoindolin-4-yl)amino)methyl)-1H-1,2,3-triazol-1-yl)pentyl)oxy)phenyl)ureido)methyl)-N-hydroxybenzamide]
